Experimental data taken from patent US20120295838A1, “Selective poly-substituted glycine antibiotics and related compositions” (priority 2008, published 2012).
In brackets after ≈: the same amount, converted by molar mass. Several values for one entry are separate records, joined by “and”; a condition that tells them apart may be missing. Equal entries are not always repeated. Where two headings read alike, the source gives them in different places. Numbered stars: 1 amine (or outer) side, 2 acyl side, 3 side chain; on linkers, the order of the positions; unused ones are H or OH. Square brackets hold non-standard residues; d marks the D form. Ends that are not written are not given here. Peptide text beside a SMILES is read from it. Gly(N-CH2CH2-imidazol-4-yl) = O=C(O)CNCCc1c[nH]cn1; X1 = CC(C)[C@H](C)N(CC(=O)[*:2])[*:1]; Nspe = C[C@H](NCC(=O)O)c1ccccc1; Nphe = O=C(O)CNCc1ccccc1; Nlys = NCCCCNCC(=O)O

Columns and labels:
Assay type in all cases: cell-based
B. subtilis ATCC 6633 = conditions: for Selectivity ratio SR B. subtilis: Table 6, ratio of 10% hemolytic dose to B. subtilis MIC
Procedure, shortened: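 Broth microdilution MICs per CLSI M7-A6 in cation-adjusted Mueller-Hinton broth, using 1×10^6 CFU/mL inoculum added 1:1 to twofold serial peptoid dilutions. Values reproducible across three independent experiments, each with two parallel trials.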

E. coli ATCC 35218 = conditions: for SR: Table 8, calculated as HD10/E. coli MIC; for Selectivity ratio SR E. coli: Table 6, ratio of 10% hemolytic dose to E. coli MIC
[1] = system: Staphylococcus aureus VAN2; conditions: for Selectivity ratio (SR): Table 7B, 10% hemolytic dose divided by MIC, S. aureus VAN2
Description: (§1) Antibacterial assays. MICs were determined according to CLSI M7-A6 protocols in a 96-well microtiter plate. In test wells, 50 uL bacterial inoculum (5×10^5 CFU/ml) in Mueller-Hinton broth (MHB) was added to 50 μL peptoid solution in MHB (prepared by 1:2 serial dilutions). Positive controls contained 50 μL inoculum and 50 μL MHB without peptoid. […] MIC values reported were reproducible between three independent experimental replicates, each consisting of two parallel trials. Broad-spectrum antimicrobial susceptibility testing was performed against BSL2 pathogens by Nova Biologicals, Inc. (Conroe, Tex.).
(§2) Broad-spectrum antibacterial assays. MICs of compounds were determined by microdilution procedure in Mueller-Hinton broth (MHB) in accordance with CLSI M7-A6 protocols in a manner similar to that described for the screen antibacterial assays. Inoculated microtiter plates were incubated at 35° C. for 24 hours prior to the result being recorded. Four ATCC strains that were used as standards are recommended by CLSI: Pseudomonas aeruginosa ATCC 27853, Escherichia coli ATCC 25922, Staphylococcus aureus ATCC 29213 and Enterococcus faecalis ATCC 29212. Other strains from the ATCC collection include Proteus vulgaris ATCC 49132, Proteus mirabilis ATCC 35659, Klebsiella pneumoniae ATCC 33495, Enterobacter aerogenes ATCC 35029 and Serratia marcescens ATCC 13880. S. aureus NRS100 (COL) is a well characterized methicillian-resistant S. aureus (MRSA) strain. The strains S. aureus VAN1 and S. aureus VAN2, vancomycin-resistant MRSA strains that were isolated in Michigan and Pennsylvania, were the first vancomycin-resistant strains clinically isolated. S. aureus NRS 119 and S. aureus NRS 120 are linezolid-resistant isolates from the Network on Antimicrobial Resistance in S. aureus (NARSA) collection. E. faecalis 99 and E. faecium 106 are vancomycin-resistant enterococcal strains.

[2] = system: Proteus vulgaris ATCC 49132; conditions: for Selectivity ratio (SR): Table 7B, 10% hemolytic dose divided by MIC
Description: as §1, §2

[3] = system: Klebsiella pneumoniae ATCC 33495; conditions: for Selectivity ratio (SR): Table 7B, 10% hemolytic dose divided by MIC
Description: as §1, §2

[4] = system: Staphylococcus aureus NRS120; conditions: for Selectivity ratio (SR): Table 7B, 10% hemolytic dose divided by MIC, S. aureus NRS120
Description: as §1, §2

[5] = system: Enterobacter aerogenes ATCC 35029; conditions: for Selectivity ratio (SR): Table 7B, 10% hemolytic dose divided by MIC
Description: as §1, §2

Enterococcus faecium 106 = conditions: for Selectivity ratio (SR): Table 7B, 10% hemolytic dose divided by MIC
Description: as §1, §2

[6] = system: Staphylococcus aureus ATCC 29213; conditions: for Selectivity ratio (SR): Table 7B, 10% hemolytic dose divided by MIC
Description: as §1, §2

[7] = system: Staphylococcus aureus VAN1; conditions: for Selectivity ratio (SR): Table 7B, 10% hemolytic dose divided by MIC, S. aureus VAN1
Description: as §1, §2

[8] = system: Staphylococcus aureus NRS119; conditions: for Selectivity ratio (SR): Table 7B, 10% hemolytic dose divided by MIC, S. aureus NRS119
Description: as §1, §2

Enterococcus faecalis 99 = conditions: for Selectivity ratio (SR): Table 7B, 10% hemolytic dose divided by MIC
Description: as §1, §2

[9] = system: Staphylococcus aureus NRS100 (COL); conditions: for Selectivity ratio (SR): Table 7B, 10% hemolytic dose divided by MIC, S. aureus NRS100 (COL)
Description: as §1, §2

[10] = system: Pseudomonas aeruginosa ATCC 27853; conditions: for Selectivity ratio (SR): Table 7B, 10% hemolytic dose divided by MIC
Description: as §1, §2

[11] = system: Escherichia coli ATCC 25922; conditions: for Selectivity ratio (SR): Table 7B, 10% hemolytic dose divided by MIC
Description: as §1, §2

[12] = system: Enterococcus faecalis ATCC 29212; conditions: for Selectivity ratio (SR): Table 7B, 10% hemolytic dose divided by MIC
Description: as §1, §2

Compound	MIC for B. subtilis ATCC 6633 (B. subtilis ATCC 6633)	MIC for E. coli ATCC 35218 (E. coli ATCC 35218)	SR (E. coli ATCC 35218)	Selectivity ratio (SR) [1]	Selectivity ratio (SR) ([2]; P. vulgaris ATCC 49132)	Selectivity ratio (SR) ([3]; K. pneumoniae ATCC 33495)	Selectivity ratio (SR) [4]	Selectivity ratio (SR) ([5]; E. aerogenes ATCC 35029)	Selectivity ratio (SR) (Enterococcus faecium 106; E. faecium 106)	Selectivity ratio (SR) ([6]; S. aureus ATCC 29213)	Selectivity ratio (SR) [7]	Selectivity ratio (SR) [8]	Selectivity ratio (SR) (Enterococcus faecalis 99; E. faecalis 99)	Selectivity ratio (SR) [9]	Selectivity ratio (SR) ([10]; P. aeruginosa ATCC 27853)	Selectivity ratio (SR) ([11]; E. coli ATCC 25922)	Selectivity ratio (SR) ([12]; E. faecalis ATCC 29212)	Selectivity ratio SR B. subtilis (B. subtilis ATCC 6633)	Selectivity ratio SR E. coli (E. coli ATCC 35218)	also measured
C[C@@H](c1ccccc1)N(CC(=O)N(CCc1cnc[nH]1)CC(=O)N(CCCCN)CC(=O)N(CC(=O)N(CC(=O)N(CCCCN)CC(=O)N(CC(=O)N(CCc1cnc[nH]1)CC(N)=O)[C@@H](C)c1ccccc1)[C@@H](C)c1ccccc1)[C@@H](C)c1ccccc1)C(=O)CN(CCCCN)C(=O)CN(C(=O)CN(C(=O)CNCCCCN)[C@@H](C)c1ccccc1)[C@@H](C)c1ccccc1 [1-Nhis6,12, H-(Nlys-Nspe-Nspe-Nlys-Nspe-Nhis)2-NH2] (H-[Nlys][Nspe][Nspe][Nlys][Nspe][Gly(N-CH2CH2-imidazol-4-yl)][Nlys][Nspe][Nspe][Nlys][Nspe][Gly(N-CH2CH2-imidazol-4-yl)]-NH2)	0.78 to 1.6 µM	50 µM	>4.0																	
CC(C)[C@H](C)N(CC(=O)N(CC(=O)N(CCCCN)CC(=O)N(CC(=O)N(CC(=O)N(CCCCN)CC(=O)N(CC(=O)N(CC(=O)N(CCCCN)CC(=O)N(CC(=O)N(CC(N)=O)[C@@H](C)c1ccccc1)[C@@H](C)C(C)C)[C@@H](C)c1ccccc1)[C@@H](C)C(C)C)[C@@H](C)c1ccccc1)[C@@H](C)C(C)C)[C@@H](C)c1ccccc1)C(=O)CNCCCCN [1-Nsdp2,5,8,11, H-(Nlys-Nsdp-Nspe)4-NH2] (H-[Nlys][X1][Nspe][Nlys][X1][Nspe][Nlys][X1][Nspe][Nlys][X1][Nspe]-NH2)				23	5.8	23	23	5.8	46	23	23	12	2.9	23	12	23	23	142	> 9.7 and 9.7	MIC ([1]; VAN2): 8 µg/mL (≈ 4.75 µM); MIC ([2]; ATCC 49132): 32 µg/mL (≈ 19 µM); MIC ([3]; ATCC 33495): 8 µg/mL (≈ 4.75 µM); MIC ([4]; NRS120): 16 µg/mL (≈ 9.51 µM); MIC ([5]; ATCC 35029): 32 µg/mL (≈ 19 µM); MIC (Enterococcus faecium 106; 106): 4 µg/mL (≈ 2.38 µM); MIC ([6]; ATCC 29213): 8 µg/mL (≈ 4.75 µM); MIC ([7]; VAN1): 8 µg/mL (≈ 4.75 µM); MIC ([8]; NRS119): 16 µg/mL (≈ 9.51 µM); MIC (Enterococcus faecalis 99; 99): 64 µg/mL (≈ 38 µM); MIC ([9]; NRS100 (COL)): 8 µg/mL (≈ 4.75 µM); MIC ([10]; ATCC 27853): 16 µg/mL (≈ 9.51 µM); MIC ([11]; ATCC 25922): 8 µg/mL (≈ 4.75 µM); MIC ([12]; ATCC 29212): 8 µg/mL (≈ 4.75 µM); Selectivity ratio SR E. coli (E. coli ATCC 35218; listed as 1-Nspd2,5,8,11): 9.7
NCCCCNCC(=O)N(CC(=O)N(CC(=O)N(CCCCN)CC(=O)N(CC(=O)N(CC(=O)N(CCCCN)CC(=O)N(CC(=O)N(CC(=O)N(CCCCN)CC(=O)N(CC(=O)N(CC(N)=O)Cc1ccccc1)Cc1ccccc1)Cc1ccccc1)Cc1ccccc1)Cc1ccccc1)Cc1ccccc1)Cc1ccccc1)Cc1ccccc1 [1achiral, H-(Nlys-Npm-Npm)4-NH2] (H-[Nlys][Nphe][Nphe][Nlys][Nphe][Nphe][Nlys][Nphe][Nphe][Nlys][Nphe][Nphe]-NH2)	1.6 µM	12.5 µM	14	39	9.8	39	19	2.4	79	39	39	19	4.9	39	19	19	19	235	15	
GIGKFLKKAKKFGKAFVKILKK-NH2 [pexiganan, reference compound]		3.1 to 6.3 µM	12	23	5.7	23	2.8	5.7	46	5.7	11	2.8	1.4	11	46	23	5.7	44	11	MIC ([1]; Table 7A, S. aureus VAN2 (MRSA, vancomycin-resistant)): 8 µg/mL; MIC ([2]; Table 7A, P. vulgaris ATCC 49132): 32 µg/mL; MIC ([3]; Table 7A, K. pneumoniae ATCC 33495): 8 µg/mL; MIC ([4]; Table 7A, S. aureus NRS120 (linezolid-resistant)): 64 µg/mL; MIC ([5]; Table 7A, E. aerogenes ATCC 35029): 32 µg/mL; MIC (Enterococcus faecium 106; Table 7A, E. faecium 106): 4 µg/mL; MIC ([6]; Table 7A, S. aureus ATCC 29213): 32 µg/mL; MIC ([7]; Table 7A, S. aureus VAN1 (MRSA, vancomycin-resistant)): 16 µg/mL; MIC ([8]; Table 7A, S. aureus NRS119 (linezolid-resistant)): 64 µg/mL; MIC (Enterococcus faecalis 99; Table 7A, E. faecalis 99): 128 µg/mL; MIC ([9]; Table 7A, S. aureus NRS100 (COL) (MRSA)): 16 µg/mL; MIC ([10]; Table 7A, P. aeruginosa ATCC 27853): 4 µg/mL; MIC ([11]; Table 7A, E. coli ATCC 25922): 8 µg/mL; MIC ([12]; Table 7A, E. faecalis ATCC 29212): 32 µg/mL
